Experimental data taken from patent US12357598B2, “Treatment of neurodevelopmental disorders” (THE REGENTS OF THE UNIVERSITY OF CALIFORNIA, priority 2018, dated 2025).

Tested on: pregnant ddY mice
Assay: General data (mortality, body weight, behavioral abnormality) of mothers and offspring after maternal glyphosate exposure
Format: in vivo, mouse
Details: for Behavioral abnormality: juvenile offspring
Procedure: Treatment of glyphosate in drinking water into pregnant mice. Previous studies used drinking water containing 0.38% glyphosate (1% Roundup®) during pregnancy and lactation, equivalent to 50 mg/kg/day of glyphosate (1,2). This does correspond with 1/20 of the glyphosate no-observed-adverse-effect level, as described previously (3). Therefore, water or glyphosate [or 0.1, 0.25, 0.50, 0.75, 1.0% Roundup®, Nissan Chemical Corporation, Tokyo, Japan] were given to the pregnant mice from E5 to P21 (weaning). The male offspring were separated from their mothers at weaning (P21), and mice were caged each three-five in the groups in clear polycarbonate cage (22.5×33.8×14.0 cm). Mice were housed under controlled temperatures and 12 hour light/dark cycles (lights on between 07:00-19:00 h), with ad libitum food and water.
Treatment of TPPU. TPPU was dissolved in polyethylene glycol 400 (PEG 400: Tokyo Chemical Industry Co., Ltd, Tokyo, Japan). TPPU (3 mg/kg/day) or vehicle (5 ml/kg, PEG 400) was administered orally in the pregnant mice from E5 to P21. Behavioral tests of offspring were performed during juvenile stage (P28-P35) after maternal glyphosate exposure (FIG. 1A).

[1] = 0.038% glyphosate (0.1% Roundup)
[2] = 0.095% glyphosate (0.25% Roundup)
[3] = 0.19% glyphosate (0.50% Roundup)
[4] = 0.285% glyphosate (0.75% Roundup)

O=C(O)CNCP(=O)(O)O [glyphosate]
Alive number of offspring on P21 [1]: 33 | Maternal mortality [1]: 0% | Number of offspring born [1]: 33 | Offspring mortality [1]: 0% | Alive number of mothers on P0 (0.038% glyphosate (0.1% Roundup), 3 mothers used): 3 | Alive number of offspring on P21 [2]: 24 | Maternal mortality [2]: 0% | Number of offspring born [2]: 30 | Offspring mortality [2]: 20% | Alive number of mothers on P0 (0.095% glyphosate (0.25% Roundup), 3 mothers used): 3 | body weight of mothers at E17 (0.095% glyphosate vs water exposure mothers): significantly lower | Alive number of offspring on P21 [3]: 2 | Maternal mortality [3]: 20% | Number of offspring born [3]: 43 | Offspring mortality [3]: 95.3% | Alive number of mothers on P0 (0.19% glyphosate (0.50% Roundup), 5 mothers used): 4 | Alive number of offspring on P21 [4]: 4 | Maternal mortality [4]: 25% | Number of offspring born [4]: 32 | Offspring mortality [4]: 87.5% | Alive number of mothers on P0 (0.285% glyphosate (0.75% Roundup), 4 mothers used): 3 | Alive number of offspring on P21 (0.38% glyphosate (1% Roundup)): 0 | Number of offspring born (0.38% glyphosate (1% Roundup)): 0 | Maternal mortality (0.38% glyphosate (1% Roundup) in drinking water from E5): 100% | Alive number of mothers on P0 (0.38% glyphosate (1% Roundup) in drinking water from E5, 4 mothers used): 0 | body weight of pregnant mice (glyphosate 0.038%-0.285%): increased gradually | body weight of pregnant mice (high concentration (0.38%) glyphosate): not increased | Behavioral abnormality (0.038% glyphosate (0.1% Roundup), locomotion, three chamber test, forced swimming test): did not show any behavioral abnormality | Behavioral abnormality [2]: observed
